We go through nine compounds from patent US20250243210A1, “CRBN E3 LIGASE LIGAND COMPOUND, PROTEIN DEGRADER DEVELOPED BASED THEREON AND THEIR APPLICATIONS” (GLUETACS THERAPEUTICS (SHANGHAI) CO., LTD., priority 2021, published 2025).

Assay [1] has as its system Daudi. The assay is described as follows: CCK-8 tumor cell proliferation, Daudi. Format: cell-based. To be noted: Homo sapiens, 96 h, read-out: IC50 for inhibiting the proliferation of tumor cells, Daudi. On the procedure:
(§1) Determination of half inhibitory concentration (IC50) of the compounds against tumor cells:
(§2) The tumor cells used herein were cultured in a cell culture medium listed in table 6 at 37° C. in an incubator with 5% CO2.
(§3) After the cells were treated with the compounds of the present disclosure for a period of time (the treatment times listed in Table 7), the cell viability detection reagent was added to the culture medium for cell viability assessment according to the instructions provided with the CCK-8 kit. […] The growth inhibition of the compounds of the present disclosure on cells was plotted by Prism Graphpad software, and the IC50 values of the compounds of the present disclosure were calculated therefrom.

Assay [2] has as its system SU-DHL-6. The assay is described as follows: CCK-8 tumor cell proliferation, SU-DHL-6. Format: cell-based. The note with it: Homo sapiens, SU-DHL-6, 72 h, read-out: IC50 for inhibiting the proliferation of tumor cells, SU-DHL-6. The method, then:
as §1, §2, §3

For assay [3], the system named is TMD8. Nature of the assay: CCK-8 tumor cell proliferation, TMD8. To be noted: Homo sapiens, TMD8, 72 h, read-out: IC50 for inhibiting the proliferation of tumor cells, TMD8. Format: cell-based. On the procedure: as §1, §2, §3
In assay [4] the test system is Kasumi-1. The assay is described as follows: CCK-8 tumor cell proliferation, Kasumi-1. Format: cell-based. To be noted: Homo sapiens, Kasumi-1, 72 h, read-out: IC50 for inhibiting the proliferation of tumor cells, Kasumi-1. On the procedure:
as §1, §2, §3

For assay [5], the system named is DU-145. The assay is described as follows: CCK-8 tumor cell proliferation, DU-145. Type of assay: cell-based, Human. The note with it: DU-145, 96 h, read-out: IC50 for inhibiting the proliferation of tumor cells, DU-145. In short, it runs like this:
(§4)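 Cells grown at 37° C with 5% CO2, treated with compound for line-specific times, then viability read with CCK-8. IC50 derived from plotted growth inhibition curves.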

The subject of assay [6] is A549. The assay is described as follows: CCK-8 tumor cell proliferation, A549. Type of assay: cell-based, Human. The note with it: A549, 96 h, read-out: IC50 for inhibiting the proliferation of tumor cells, A549. The method, then: as §1
The tumor cells used herein were cultured in a cell culture medium listed in table 6 at 37° C. in an incubator with 5% CO2. Prior to experimentation, all cells used were correctly identified by STR profiling, and tested negative for mycoplasma through routine screenings.
IC50 values of the compounds of the present disclosure (including the compounds in Table 4 and compounds of examples 1-72) were measured using the Meilun Cell Counting Kit-S kit from Dalian Meilun Biotech Co., Ltd. Assay details are as follows: tumor cells were seeded in a 96-well plate at a density listed in Table 7. After 24 h, 100 μL of the inoculated cells were treated with 0.5 μL of the compounds of the present disclosure (including the compounds in Table 4 and compounds of examples 1-72) at 10 different successively decreasing concentrations (starting at the highest concentration of 10 μM; 5-fold serial dilutions). After the cells were treated with the compounds of the present disclosure for a period of time (the treatment times listed in Table 7), the cell viability detection reagent was added to the culture medium for cell viability assessment according to the instructions provided with the CCK-8 kit. […] The growth inhibition of the compounds of the present disclosure on cells was plotted by Prism Graphpad software, and the IC50 values of the compounds of the present disclosure were calculated therefrom.

Assay [7] has as its system MGC80-3. Nature of the assay: CCK-8 tumor cell proliferation, MGC80-3. Type of assay: cell-based, Human. To be noted: MGC80-3, 96 h, read-out: IC50 for inhibiting the proliferation of tumor cells, MGC80-3. Summed up:
(§5)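 Cells were seeded in 96-well plates and treated 24 h later with compounds at 10 concentrations, top 10 μM, 5-fold serial dilutions. Viability after the set treatment time was read with a CCK-8 kit, and IC50 was calculated from growth-inhibition curves.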

In assay [8] the test system is WSU-DLCL2. The assay is described as follows: CCK-8 tumor cell proliferation, WSU-DLCL2. The note with it: WSU-DLCL2, 96 h, read-out: IC50 for inhibiting the proliferation of tumor cells, WSU-DLCL2. Format: cell-based, Human. Summed up: as §4
The subject of assay [9] is LNcap. Nature of the assay: CCK-8 tumor cell proliferation, LNcap. Type of assay: cell-based, Human. To be noted: 96 h, read-out: IC50 for inhibiting the proliferation of tumor cells, LNcap. In short, it runs like this: as §5
Assay [10] deals with PC-3. The assay is described as follows: CCK-8 tumor cell proliferation, PC-3. Format: cell-based, Human. To be noted: PC-3, 96 h, read-out: IC50 for inhibiting the proliferation of tumor cells, PC-3. The method, then: as §1, §2, §3
For assay [11], the system named is Hep3B2.1-7. Nature of the assay: CCK-8 tumor cell proliferation, Hep3B2.1-7. To be noted: Hep3B2.1-7, 96 h, read-out: IC50 for inhibiting the proliferation of tumor cells, Hep3B2.1-7. Type of assay: cell-based, Human. In short, it runs like this: as §5
The test system of assay [12] is MM.1R. The assay is described as follows: CCK-8 tumor cell proliferation, MM.1R. Format: cell-based. To be noted: 72 h, read-out: IC50 for inhibiting the proliferation of tumor cells, MM.1R. On the procedure:
as §1, §2, §3

Assay [13] deals with SW620. The assay is described as follows: CCK-8 tumor cell proliferation, SW620. Format: cell-based, Human. The note with it: SW620, 96 h, CCK-8, Table 8 (AR-based); read-out: IC50 for inhibiting the proliferation of tumor cells, SW620. The method, then: as §1, §2, §3
Assay [14] has as its system CCRF-CEM. Nature of the assay: CCK-8 tumor cell proliferation, CCRF-CEM. Format: cell-based, Human. To be noted: 96 h, read-out: IC50 for inhibiting the proliferation of tumor cells, CCRF-CEM. On the procedure: as §1, §2, §3

Regarding `Cc1nc(Nc2ncc(C(=O)Nc3c(C)cccc3Cl)s2)cc(N2CCN(CCO)CC2)n1` [Dasatinib, reference compound], the IC50 in [1] is 100 to 500 nM; in [2], not above 50 nM; in assay [3], not above 50 nM; in assay [4], not above 50 nM.

As for `N#Cc1ccc(OC2CCC(NC(=O)c3ccc(N4CCC(CN5CC6CCC(C5)N6c5cc6c(cc5F)C(=O)N(C5CCC(=O)NC5=O)C6=O)CC4)nn3)CC2)cc1Cl` (stereo not shown) [GT-02765, N-((1r,4r)-4-(3-chloro-4-cyanophenoxy)cyclohexyl)-6-(4-((8-(2-(2,6-dioxopiperidin-3-yl)-6-fluoro-1,3-dioxoisoindolin-5-yl)-3,8-diazabicyclo[3.2.1]octan-3-yl)methyl)piperidin-1-yl)pyridazine-3-carboxamide], the IC50 in assay [5] is 50 to 100 nM; in assay [6] it was not above 50 nM; in assay [7] it was not above 50 nM; in [8], not above 50 nM; in assay [9], not above 50 nM; in assay [10], not above 50 nM. In addition, the figures for the IC50 in assay [11], in [12] and in assay [13] were not above 50 nM, 100 to 500 nM and not above 50 nM, respectively.

Regarding `N#Cc1ccc(OC2CCC(NC(=O)c3ccc(N4CCC(CN5CCN(c6cc7c(cc6F)C(=O)N(C6CCC(=O)NC6=O)C7=O)CC5)CC4)nn3)CC2)cc1Cl` (stereo not shown) [GT-03016, N-((1r,4r)-4-(3-chloro-4-cyanophenoxy)cyclohexyl)-6-(4-((4-(2-(2,6-dioxopiperidin-3-yl)-6-fluoro-1,3-dioxoisoindolin-5-yl)piperazin-1-yl-2,2,3,3,5,5,6,6-d8)methyl)piperidin-1-yl)pyridazine-3-carboxamide], the IC50 lay in the range of 500 to 1000 nM in assay [5]; 100 to 500 nM in assay [7]; 1000 to 5000 nM in [8]; 500 to 1000 nM in assay [9]; 500 to 1000 nM in [10]; 1000 to 5000 nM in assay [12]. Also, in assay [13], the IC50 lay within 50 to 100 nM.

As to `N#Cc1ccc(OC2CCC(NC(=O)c3ccc(N4C5CCC4CN(CC4CCN(c6cc7c(cc6F)C(=O)N(C6CCC(=O)NC6=O)C7=O)CC4)C5)nn3)CC2)cc1Cl` (stereo not shown) [GT-03449, N-((1r,4r)-4-(3-chloro-4-cyanophenoxy)cyclohexyl)-6-(3-((1-(2-(2,6-dioxopiperidin-3-yl)-6-fluoro-1,3-dioxoisoindolin-5-yl)piperidin-4-yl)methyl)-3,8-diazabicyclo[3.2.1]octan-8-yl)pyridazine-3-carboxamide], the IC50 in assay [5] is 500 to 1000 nM; in assay [7], 50 to 100 nM; in [9] it was 50 to 100 nM; in assay [11], 50 to 100 nM; in assay [12], 100 to 500 nM; in assay [14] it was 100 to 500 nM.

For `N#Cc1ccc(OC2CCC(NC(=O)c3ccc(N4CCC(CN5CC6CC(C5)N6c5cc6c(cc5F)C(=O)N(C5CCC(=O)NC5=O)C6=O)CC4)nn3)CC2)cc1Cl` (stereo not shown) [GT-03486, N-((1r,4r)-4-(3-chloro-4-cyanophenoxy)cyclohexyl)-6-(4-((6-(2-(2,6-dioxopiperidin-3-yl)-6-fluoro-1,3-dioxoisoindolin-5-yl)-3,6-diazabicyclo[3.1.1]heptan-3-yl)methyl)piperidin-1-yl)pyridazine-3-carboxamide], the IC50 was in the range of 100 to 500 nM in assay [6]; 50 to 100 nM in assay [7]; 100 to 500 nM in [8]; 100 to 500 nM in [9]; 100 to 500 nM in [12]; 100 to 500 nM in assay [14].

On to `Cc1nc(Nc2ncc(C(=O)Nc3c(C)cccc3Cl)s2)cc(N2CCC(CN3C4CCC3CN(c3cc5c(cc3F)C(=O)N(C3CCC(=O)NC3=O)C5=O)C4)CC2)n1` (stereo not shown) [GT-03537, N-(2-chloro-6-methylphenyl)-2-((6-(4-((3-(2-(2,6-dioxopiperidin-3-yl)-6-fluoro-1,3-dioxoisoindolin-5-yl)-3,8-diazabicyclo[3.2.1]octan-8-yl)methyl)piperidin-1-yl)-2-methylpyrimidin-4-yl)amino)thiazole-5-carboxamide], for which the IC50 is 100 to 500 nM in assay [1], not above 50 nM in assay [2], not above 50 nM in [3] and 50 to 100 nM in [4].

Turning to `Cc1nc(Nc2ncc(C(=O)Nc3c(C)cccc3Cl)s2)cc(N2CCC(CN3C4CC3CN(c3cc5c(cc3F)C(=O)N(C3CCC(=O)NC3=O)C5=O)C4)CC2)n1` (stereo not shown) [GT-03538, N-(2-chloro-6-methylphenyl)-2-((6-(4-((3-(2-(2,6-dioxopiperidin-3-yl)-6-fluoro-1,3-dioxoisoindolin-5-yl)-3,6-diazabicyclo[3.1.1]heptan-6-yl)methyl)piperidin-1-yl)-2-methylpyrimidin-4-yl)amino)thiazole-5-carboxamide], the IC50 is 100 to 500 nM in [1], not above 50 nM in assay [2], not above 50 nM in assay [3] and 100 to 500 nM in [4].

Regarding `Cc1nc(Nc2ncc(C(=O)Nc3c(C)cccc3Cl)s2)cc(N2CCC(CN3C4CC3CN(c3ccc5c(c3)C(=O)N(C3CCC(=O)NC3=O)C5=O)C4)CC2)n1` (stereo not shown) [GT-03631, N-(2-chloro-6-methylphenyl)-2-((6-(4-((3-(2-(2,6-dioxopiperidin-3-yl)-1,3-dioxoisoindolin-5-yl)-3,6-diazabicyclo[3.1.1]heptan-6-yl)methyl)piperidin-1-yl)-2-methylpyrimidin-4-yl)amino)thiazole-5-carboxamide], the IC50 was 100 to 500 nM in assay [1], not above 50 nM in [2] and 100 to 500 nM in assay [4].

As for `Cc1nc(Nc2ncc(C(=O)Nc3c(C)cccc3Cl)s2)cc(N2CCC(CN3C4CCC3CN(c3ccc5c(c3)C(=O)N(C3CCC(=O)NC3=O)C5=O)C4)CC2)n1` (stereo not shown) [GT-03632, N-(2-chloro-6-methylphenyl)-2-((6-(4-((3-(2-(2,6-dioxopiperidin-3-yl)-1,3-dioxoisoindolin-5-yl)-3,8-diazabicyclo[3.2.1]octan-8-yl)methyl)piperidin-1-yl)-2-methylpyrimidin-4-yl)amino)thiazole-5-carboxamide], the IC50 is 50 to 100 nM in assay [1], not above 50 nM in [2] and not above 50 nM in assay [4].
